Laboratory results as given in article PMC9005681, “Use of AD Informer Set compounds to explore validity of novel targets in Alzheimer's disease pathology” (Alzheimer's & Dementia : Translational Research & Clinical …, 2022).
Where “and” joins values, the source holds several entries; their conditions need not be identical. Identical values can stand only once.

How the values were obtained:
Experiment in all cases: PDSP GPCR panel primary binding assays at 10 μM
[1] = biological target: T1, cloned human or rodent CNS receptors, channels, and transporters (PDSP panel) (Homo sapiens, UniProt P14416); settings: Receptor D2, primary assay, 10 μM
T1 construct: expressed in transfected cells
How it was run: (§1)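 Secondary binding curves (11 points, triplicate) were run at targets where the 10 μM primary screen, done in quadruplicate, displaced over 50% of radio-labelled standard ligand on average. Primary screening covered 46–47 cloned human or rodent CNS targets; H3, PBR and GABAA were not followed up.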

[2] = biological target: T2, cloned human or rodent CNS receptors, channels, and transporters (PDSP panel) (Homo sapiens, UniProt P23975); settings: Receptor NET, primary assay, 10 μM
T2 construct: expressed in transfected cells
How it was run: as §1

[3] = biological target: T3, cloned human or rodent CNS receptors, channels, and transporters (PDSP panel) (Homo sapiens, UniProt P25100); settings: Receptor Alpha1D, primary assay, 10 μM
T3 construct: expressed in transfected cells
T3 sequence (P25100 1-572): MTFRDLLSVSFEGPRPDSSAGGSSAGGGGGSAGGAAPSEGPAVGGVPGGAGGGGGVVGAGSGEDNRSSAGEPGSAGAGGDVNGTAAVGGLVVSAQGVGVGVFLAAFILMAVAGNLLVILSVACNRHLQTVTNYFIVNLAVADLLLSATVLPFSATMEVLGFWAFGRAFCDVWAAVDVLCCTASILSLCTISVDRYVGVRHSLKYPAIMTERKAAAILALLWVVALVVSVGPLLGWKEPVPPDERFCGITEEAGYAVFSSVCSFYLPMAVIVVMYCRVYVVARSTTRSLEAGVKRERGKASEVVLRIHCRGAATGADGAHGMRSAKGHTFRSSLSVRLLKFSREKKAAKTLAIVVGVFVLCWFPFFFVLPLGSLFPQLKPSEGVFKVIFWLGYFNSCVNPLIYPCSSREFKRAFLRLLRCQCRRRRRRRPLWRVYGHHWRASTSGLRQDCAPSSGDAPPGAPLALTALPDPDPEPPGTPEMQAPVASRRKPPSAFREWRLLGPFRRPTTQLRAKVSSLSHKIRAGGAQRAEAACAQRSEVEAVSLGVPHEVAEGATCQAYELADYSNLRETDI
How it was run: as §1

[4] = biological target: T4, cloned human or rodent CNS receptors, channels, and transporters (PDSP panel) (Homo sapiens, UniProt P28221); settings: Receptor 5-HT1D, primary assay, 10 μM
T4 construct: expressed in transfected cells
How it was run: as §1

[5] = biological target: T5, cloned human or rodent CNS receptors, channels, and transporters (PDSP panel) (Homo sapiens, UniProt P31645); settings: Receptor SERT, primary assay, 10 μM
T5 construct: expressed in transfected cells
How it was run: as §1

[6] = biological target: T6, cloned human or rodent CNS receptors, channels, and transporters (PDSP panel) (Homo sapiens, UniProt P41595); settings: Receptor 5-HT2B, primary assay, 10 μM
T6 construct: expressed in transfected cells
How it was run: as §1

[7] = test system: cloned human or rodent CNS receptors, channels, and transporters (PDSP panel); settings: primary assay, 10 μM; for Mean %: mean of Inhibition 1-4
How it was run: as §1

T1 sequence (P14416 whole entry): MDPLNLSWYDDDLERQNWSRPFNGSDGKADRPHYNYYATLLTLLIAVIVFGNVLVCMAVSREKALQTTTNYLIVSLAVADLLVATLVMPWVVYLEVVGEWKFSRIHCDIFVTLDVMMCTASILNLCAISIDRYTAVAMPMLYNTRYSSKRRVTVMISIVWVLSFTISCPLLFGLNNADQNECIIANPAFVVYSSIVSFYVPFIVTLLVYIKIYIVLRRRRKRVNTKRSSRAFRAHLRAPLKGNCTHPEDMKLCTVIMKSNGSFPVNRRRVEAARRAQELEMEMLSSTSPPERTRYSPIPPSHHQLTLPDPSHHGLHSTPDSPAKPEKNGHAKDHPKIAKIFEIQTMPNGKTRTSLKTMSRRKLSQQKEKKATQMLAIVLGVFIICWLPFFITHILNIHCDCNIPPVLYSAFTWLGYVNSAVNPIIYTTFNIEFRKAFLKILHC
T6 sequence (P41595 whole entry): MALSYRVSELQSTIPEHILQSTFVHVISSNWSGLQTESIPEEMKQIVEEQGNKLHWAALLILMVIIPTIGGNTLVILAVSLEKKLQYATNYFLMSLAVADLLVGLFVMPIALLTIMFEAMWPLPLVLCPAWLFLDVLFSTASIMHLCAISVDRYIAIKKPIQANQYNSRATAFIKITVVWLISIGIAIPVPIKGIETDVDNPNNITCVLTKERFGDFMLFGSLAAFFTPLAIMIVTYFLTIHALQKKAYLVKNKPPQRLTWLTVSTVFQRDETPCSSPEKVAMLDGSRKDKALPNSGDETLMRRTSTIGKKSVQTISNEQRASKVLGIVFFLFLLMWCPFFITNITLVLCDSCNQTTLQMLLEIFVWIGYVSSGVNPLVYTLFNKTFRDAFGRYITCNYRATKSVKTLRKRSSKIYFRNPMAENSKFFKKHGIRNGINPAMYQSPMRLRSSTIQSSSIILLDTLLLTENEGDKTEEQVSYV
T5 sequence (P31645 whole entry): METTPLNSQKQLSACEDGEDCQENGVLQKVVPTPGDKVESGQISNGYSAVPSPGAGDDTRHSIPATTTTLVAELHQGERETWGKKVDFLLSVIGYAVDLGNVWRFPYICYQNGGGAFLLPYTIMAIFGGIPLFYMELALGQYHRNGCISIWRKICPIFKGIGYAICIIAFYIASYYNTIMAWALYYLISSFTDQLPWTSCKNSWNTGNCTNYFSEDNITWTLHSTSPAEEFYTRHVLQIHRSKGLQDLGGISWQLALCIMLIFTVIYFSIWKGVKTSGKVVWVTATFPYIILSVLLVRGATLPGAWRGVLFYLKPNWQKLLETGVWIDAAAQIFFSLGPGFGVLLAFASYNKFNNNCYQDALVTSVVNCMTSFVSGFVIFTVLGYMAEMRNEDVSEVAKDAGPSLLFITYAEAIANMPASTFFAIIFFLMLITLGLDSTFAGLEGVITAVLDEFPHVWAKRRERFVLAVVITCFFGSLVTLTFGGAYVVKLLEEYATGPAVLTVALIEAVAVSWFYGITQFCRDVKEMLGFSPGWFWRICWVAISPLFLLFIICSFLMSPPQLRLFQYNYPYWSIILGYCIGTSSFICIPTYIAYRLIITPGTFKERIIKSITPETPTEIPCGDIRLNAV
T4 sequence (P28221 whole entry): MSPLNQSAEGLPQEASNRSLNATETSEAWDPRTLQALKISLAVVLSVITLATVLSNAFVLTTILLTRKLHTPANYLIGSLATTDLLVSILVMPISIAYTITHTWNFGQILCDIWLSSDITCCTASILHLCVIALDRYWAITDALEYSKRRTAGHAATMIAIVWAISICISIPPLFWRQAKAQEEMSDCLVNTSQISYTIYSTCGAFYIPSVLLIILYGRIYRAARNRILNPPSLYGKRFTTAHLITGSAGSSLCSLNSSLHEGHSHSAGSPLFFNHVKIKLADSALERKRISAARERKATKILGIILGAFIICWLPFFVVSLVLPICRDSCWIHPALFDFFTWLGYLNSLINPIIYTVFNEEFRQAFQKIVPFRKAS
T2 sequence (P23975 whole entry): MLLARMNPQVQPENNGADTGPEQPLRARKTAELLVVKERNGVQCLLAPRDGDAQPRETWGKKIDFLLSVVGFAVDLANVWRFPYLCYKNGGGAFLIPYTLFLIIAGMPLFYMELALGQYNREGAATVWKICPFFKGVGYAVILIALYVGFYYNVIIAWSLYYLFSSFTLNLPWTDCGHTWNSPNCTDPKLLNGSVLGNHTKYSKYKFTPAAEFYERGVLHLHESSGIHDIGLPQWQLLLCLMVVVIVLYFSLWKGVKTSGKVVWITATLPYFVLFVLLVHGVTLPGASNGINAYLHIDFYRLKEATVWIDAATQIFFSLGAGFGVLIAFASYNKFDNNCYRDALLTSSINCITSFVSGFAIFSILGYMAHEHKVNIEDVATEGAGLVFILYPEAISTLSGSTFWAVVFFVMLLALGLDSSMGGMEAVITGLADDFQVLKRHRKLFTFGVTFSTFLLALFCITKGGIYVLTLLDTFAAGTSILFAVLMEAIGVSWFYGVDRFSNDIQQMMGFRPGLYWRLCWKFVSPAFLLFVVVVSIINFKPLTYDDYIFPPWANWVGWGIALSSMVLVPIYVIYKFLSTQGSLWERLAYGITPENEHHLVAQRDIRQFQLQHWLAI

Compound: c1cn2cc(-c3ccc4cn[nH]c4c3)nc(Nc3ccc(N4CCOCC4)cc3)c2n1 [UNC10302678A, Entospletinib (GS-9973)]
- Inhibition 1 [1]: 15.89%
- Inhibition 2 [1]: 4.51%
- Inhibition 3 [1]: -1.13%
- Inhibition 4 [1]: -7.35%
- Mean % ([1]; mean of Inhibition 1-4): 2.98%
- Inhibition 1 [2]: -3.87% and -2.7%
- Inhibition 2 [2]: -11.22% and -16.36%
- Inhibition 3 [2]: -0.44% and -2.13%
- Mean % ([2]; mean of Inhibition 1-4): 1.02% and -6.36%
- Inhibition 1 [3]: -9.56%
- Inhibition 2 [3]: -12.54%
- Inhibition 3 [3]: -12.26%
- Inhibition 4 [3]: -10.27%
- Mean % ([3]; mean of Inhibition 1-4): -11.16%
- Inhibition 1 [4]: 30.71%
- Inhibition 2 [4]: 10.31%
- Inhibition 3 [4]: -25.09%
- Inhibition 4 [4]: 3.23%
- Mean % ([4]; mean of Inhibition 1-4): 4.79%
- Inhibition 1 [5]: 60.12%
- Inhibition 2 [5]: 23.39% and 14.88%
- Inhibition 3 [5]: 22.83% and 32.36%
- Inhibition 4 [5]: 31.59% and 27.97%
- Mean % ([5]; mean of Inhibition 1-4): 34.48% and 22.48%
- Inhibition 1 [6]: 61.2%
- Inhibition 2 [6]: 0.79%
- Inhibition 3 [6]: -21.45%
- Inhibition 4 [6]: 15.05%
- Mean % ([6]; mean of Inhibition 1-4): 13.9%
- Inhibition 1 ([7]; Receptor Alpha1A): -6.64%
- Inhibition 2 ([7]; Receptor Alpha1A): -39.37%
- Inhibition 3 ([7]; Receptor Alpha1A): -29.27%
- Inhibition 4 ([7]; Receptor Alpha1A): -15.24%
- Mean % ([7]; Receptor Alpha1A): -22.63%
- Inhibition 1 ([7]; Receptor Alpha2A): -9.73%
- Inhibition 2 ([7]; Receptor Alpha2A): -11.16%
- Inhibition 3 ([7]; Receptor Alpha2A): -12.52%
- Inhibition 4 ([7]; Receptor Alpha2A): 5.61%
- Mean % ([7]; Receptor Alpha2A): -6.95%
- Inhibition 1 ([7]; Receptor Alpha2C): 4.82%
- Inhibition 2 ([7]; Receptor Alpha2C): 7.15%
- Inhibition 3 ([7]; Receptor Alpha2C): 3.37%
- Inhibition 4 ([7]; Receptor Alpha2C): 11.76%
- Mean % ([7]; Receptor Alpha2C): 6.78%
- Inhibition 1 ([7]; Receptor BZP Rat Brain Site): 2.63%
- Inhibition 2 ([7]; Receptor BZP Rat Brain Site): -6.94%
- Inhibition 3 ([7]; Receptor BZP Rat Brain Site): -0.59%
- Inhibition 4 ([7]; Receptor BZP Rat Brain Site): 10.21%
- Mean % ([7]; Receptor BZP Rat Brain Site): 1.33%
- Inhibition 1 ([7]; Receptor DOR): -7.03%
- Inhibition 2 ([7]; Receptor DOR): -15.52%
- Inhibition 3 ([7]; Receptor DOR): 1.47%
- Inhibition 4 ([7]; Receptor DOR): -11.54%
- Mean % ([7]; Receptor DOR): -8.16%
- Inhibition 1 ([7]; Receptor H3): 4.01%
- Inhibition 2 ([7]; Receptor H3): 32.57%
- Inhibition 3 ([7]; Receptor H3): 40.44%
- Inhibition 4 ([7]; Receptor H3): 49.18%
- Mean % ([7]; Receptor H3): 31.55%
- Inhibition 1 ([7]; Receptor H4): 40.38%
- Inhibition 2 ([7]; Receptor H4): 31.02%
- Inhibition 3 ([7]; Receptor H4): 31.26%
- Inhibition 4 ([7]; Receptor H4): 64.39%
- Mean % ([7]; Receptor H4): 41.76%
- Inhibition 1 ([7]; Receptor Sigma 1): 24.21%
- Inhibition 2 ([7]; Receptor Sigma 1): 17.43%
- Inhibition 3 ([7]; Receptor Sigma 1): 8.82%
- Inhibition 4 ([7]; Receptor Sigma 1): -3.67%
- Mean % ([7]; Receptor Sigma 1): 11.7%
- Inhibition 1 ([7]; Receptor Sigma 2): 10.94%
- Inhibition 2 ([7]; Receptor Sigma 2): -1.79%
- Inhibition 3 ([7]; Receptor Sigma 2): -3.28%
- Inhibition 4 ([7]; Receptor Sigma 2): -0.08%
- Mean % ([7]; Receptor Sigma 2): 1.45%
